PubChem BioAssay AID1259407 (Chemical Carcinogenesis Research Information System (CCRIS), 2018)
The source made the active and inactive calls. No rule for the calls is given here.

Tested on: CCRIS mutagenicity, Ames/micronucleus/aberration tests
Test: CCRIS mutagenicity studies
Conditions: Test System: AMES SALMONELLA TYPHIMURIUM
[1] = Strain/Indicator: TA100, Metabolic Activation: NONE, Method: LIQUID INCUBATION

Compound: O=C(O)CC(Cl)C(=O)O (stereo unspecified)
- mutagenic call (Strain/Indicator: TA98, Metabolic Activation: NONE): inactive; negative
- mutagenic call (Strain/Indicator: TA98, Metabolic Activation: RAT, LIVER, S-9, AROCLOR 1254): inactive; negative
- mutagenic call (Strain/Indicator: TA100, Metabolic Activation: NONE): inactive; negative
- mutagenic call (Strain/Indicator: TA100, Metabolic Activation: RAT, LIVER, S-9, AROCLOR 1254): inactive; negative
- mutagenic call (Strain/Indicator: TA102, Metabolic Activation: NONE): inactive; negative
- mutagenic call (Strain/Indicator: TA102, Metabolic Activation: RAT, LIVER, S-9, AROCLOR 1254): inactive; negative
- mutagenic call (Strain/Indicator: TA104, Metabolic Activation: NONE): inactive; negative
- mutagenic call (Strain/Indicator: TA104, Metabolic Activation: RAT, LIVER, S-9, AROCLOR 1254): inactive; negative

Compound: NC(=O)N(Cc1ccccc1)N=O
- mutagenic call [1]: active; positive
- mutagenic call (Strain/Indicator: TA1535, Metabolic Activation: NONE, Method: LIQUID INCUBATION): inactive; negative

Compound: O=C(O)c1ccc(NC2OCC(O)C(O)C2O)cc1 (stereo unspecified)
- mutagenic call [1]: inactive; negative
